The values below come from US12178842B2, “PCSK9 antagonist compounds” (MERCK SHARP & DOHME LLC, priority 2019, dated 2024).

The structures appear in SMILES notation.

Holding throughout (type): binding
The target of experiment [1] is T1, PCSK9 (Homo sapiens, UniProt Q8NBP7).
T1 construct: biotin (biotinylated); purchased
Kind of experiment: PCSK9 Alexa FRET Standard TR-FRET assay. To be noted: Ki calculated from IC50 and KD of AF cyclic peptide Reagent A; 0.5 nM PCSK9, 20 nM AF cyclic peptide; read-out: Alexa FRET Stdt TR-FRET. In outline: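 Ki (nM) calculated from sigmoidal-fit IC50 and the KD of an AlexaFluor-labelled cyclic peptide (20 nM final) competing with compound for biotinylated PCSK9 (0.5 nM) bound to Eu-streptavidin (1.25 nM). Incubation at least 2 h, room temperature, HEPES pH 7.4 buffer with CaCl2; falling europium counts flag false positives.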

For experiment [2], the target named is T1, PCSK9. Kind of experiment: PCSK9 Alexa FRET Plus TR-FRET assay. In outline:
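Compounds displace an AlexaFluor-labeled cyclic peptide (1920 nM solution, not final) from europium-tagged PCSK9; time-resolved FRET read after ≥2 h at room temperature. Ki derived from fitted IC50 and peptide KD, europium donor counts monitored to detect compound interference, results given in nanomolar.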
A general note: In TR-FRET formats the signal depends on donor and acceptor labels being close together.

For experiment [3], the target named is T1, PCSK9. Kind of experiment: PCSK9 Alexa FRET Ultra TR-FRET assay. In outline:
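TR-FRET read after ≥2 h at room temperature between europium-PCSK9 and an AlexaFluor cyclic peptide, stated as a 1920 nM solution. Sigmoidal nonlinear regression gives IC50, and Ki in nM follows from the peptide KD; europium counts are monitored for compound interference.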

The mark [4] stands for this setting: Ki calculated from IC50 and KD of AF cyclic peptide Reagent B, 0.5 nM PCSK9, 960 nM AF cyclic peptide, read-out: Alexa FRET Plus TR-FRET.
The mark [5] stands for this setting: Ki Ultra, calculated from IC50 and KD of AF cyclic peptide, 0.5 nM PCSK9, 960 nM AF cyclic peptide, read-out: Alexa FRET Ultra TR-FRET.

T1 sequence (Q8NBP7 153-692): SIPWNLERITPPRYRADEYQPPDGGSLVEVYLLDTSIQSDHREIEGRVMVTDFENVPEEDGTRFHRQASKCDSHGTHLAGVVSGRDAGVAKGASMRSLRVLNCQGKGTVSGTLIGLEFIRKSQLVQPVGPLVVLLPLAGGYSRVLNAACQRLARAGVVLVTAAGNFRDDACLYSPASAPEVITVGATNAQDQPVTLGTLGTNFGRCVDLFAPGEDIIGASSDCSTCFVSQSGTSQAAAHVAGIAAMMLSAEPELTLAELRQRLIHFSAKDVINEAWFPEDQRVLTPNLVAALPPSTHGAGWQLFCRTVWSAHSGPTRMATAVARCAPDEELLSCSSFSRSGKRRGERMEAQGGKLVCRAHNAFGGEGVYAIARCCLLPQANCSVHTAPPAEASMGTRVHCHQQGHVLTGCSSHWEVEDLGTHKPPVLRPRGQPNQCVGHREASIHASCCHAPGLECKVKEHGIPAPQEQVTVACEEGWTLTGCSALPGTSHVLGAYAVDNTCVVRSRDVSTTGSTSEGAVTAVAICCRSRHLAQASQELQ

Take `CCCCCCC(=O)NCCCCCCCC(=O)N[C@@H](CCC(=O)NCCOCCOCC(=O)NCCOCCOCC(=O)NCC[N+](C)(C)CCCCCC(=O)NC[C@H]1NC(=O)[C@H](C)NC(=O)CCC(=O)N2CCCCCCn3cc(c4cc(F)ccc43)C[C@@H]3NC(=O)[C@H](Cc4cccc(c4)CNC(=O)CO[C@H]4CCN(C3=O)[C@@H]4C(=O)N[C@@H]([C@@H](C)O)C(=O)N[C@@H](Cc3ccc(OC)cc3)C(=O)N3CCC[C@@]3(C)C(=O)NCCc3ccc(cc3)C2)NC1=O)C(=O)O` [Ex-19]: the Ki on PCSK9 [1] was < 1.26 nM; at PCSK9 [2] (setting [4]) it was < 0.006 nM; at PCSK9 [3] (setting [5]), 0.001 nM.
Take `COc1ccc(C[C@@H]2NC(=O)[C@H]([C@@H](C)O)NC(=O)[C@@H]3[C@@H]4CCN3C(=O)[C@@H]3Cc5cn(c6ccc(F)cc56)CCCCCCN(Cc5ccc(cc5)CCNC(=O)[C@]5(C)CCCN5C2=O)C(=O)CCC(=O)N[C@@H](C)C(=O)N[C@H](CNC(=O)CCCCC[N+](C)(C)CCNC(=O)COCCOCCNC(=O)COCCOCCNC(=O)CC[C@H](NC(=O)CCCCCCCCCCCCCCCCCCC(=O)O)C(=O)O)C(=O)N[C@@H](Cc2cccc(c2)CNC(=O)CO4)C(=O)N3)cc1` [Ex-27]: the Ki was < 1.26 nM on PCSK9 [1], 0.014 nM at PCSK9 [2] and 0.006 nM at PCSK9 [3].
For the compound `COc1ccc(C[C@@H]2NC(=O)[C@H]([C@@H](C)O)NC(=O)[C@@H]3[C@@H]4CCN3C(=O)[C@@H]3Cc5cn(c6ccc(F)cc56)CCCCCCN(Cc5ccc(cc5)CCNC(=O)[C@]5(C)CCCN5C2=O)C(=O)CCC(=O)N[C@@H](C)C(=O)N[C@H](CNC(=O)CCCCC[N+](C)(C)CCNC(=O)COCCOCCNC(=O)COCCOCCNC(=O)CC[C@H](NC(=O)CCCCCCCCCCCCCCC(=O)O)C(=O)O)C(=O)N[C@@H](Cc2cccc(c2)CNC(=O)CO4)C(=O)N3)cc1` [Example 3], the figures for the Ki at PCSK9 [1], at PCSK9 [2] and on PCSK9 [3] were < 1.26 nM, < 0.006 nM and 0.005 nM, respectively.
Regarding `COc1ccc(C[C@@H]2NC(=O)[C@H]([C@@H](C)O)NC(=O)[C@@H]3[C@@H]4CCN3C(=O)[C@@H]3Cc5cn(c6ccc(F)cc56)CCCCCCN(Cc5ccc(cc5)CCNC(=O)[C@]5(C)CCCN5C2=O)C(=O)CCC(=O)N[C@@H](C)C(=O)N[C@H](CNC(=O)CCOCCOCC[N+](C)(C)CCNC(=O)CCOCCOCC[N+](C)(C)CCNC(=O)COCCOCCNC(=O)COCCOCCNC(=O)CC[C@H](NC(=O)CC[C@H](NC(=O)CCCCCCCCCCCCCCC(=O)O)C(=O)O)C(=O)O)C(=O)N[C@@H](Cc2cccc(c2)CNC(=O)CO4)C(=O)N3)cc1` [Ex-11], the Ki is < 1.26 nM at PCSK9 [1], 0.007 nM on PCSK9 [2] (setting [4]) and 0.006 nM at PCSK9 [3] (setting [5]).
Consider `CCCCCCC(=O)NCCCCCCCC(=O)NCC[N+](C)(C)CCOCCOCCC(=O)NC[C@H]1NC(=O)[C@H](C)NC(=O)CCC(=O)N2CCCCCCn3cc(c4cc(F)ccc43)C[C@@H]3NC(=O)[C@H](Cc4cccc(c4)CNC(=O)CO[C@H]4CCN(C3=O)[C@@H]4C(=O)N[C@@H]([C@@H](C)O)C(=O)N[C@@H](Cc3ccc(OC)cc3)C(=O)N3CCC[C@@]3(C)C(=O)NCCc3ccc(cc3)C2)NC1=O` [Ex-20], for which the Ki on PCSK9 [1] was < 1.26 nM; on PCSK9 [2] (setting [4]), < 0.006 nM; on PCSK9 [3] (setting [5]) it was 0.001 nM.
Take `COc1ccc(C[C@@H]2NC(=O)[C@H]([C@@H](C)O)NC(=O)[C@@H]3[C@@H]4CCN3C(=O)[C@@H]3Cc5cn(c6ccc(F)cc56)CCCCCCN(Cc5ccc(cc5)CCNC(=O)[C@]5(C)CCCN5C2=O)C(=O)CCC(=O)N[C@@H](CNC(=O)CCOCCOCC[N+](C)(C)CCNC(=O)COCCOCCNC(=O)COCCOCCNC(=O)CC[C@H](NC(=O)CCCCCCCCCCCCCCC(=O)O)C(=O)O)C(=O)N[C@H](CNC(=O)CCOCCOCC[N+](C)(C)C)C(=O)N[C@@H](Cc2cccc(c2)CNC(=O)CO4)C(=O)N3)cc1` [Ex-64]: the Ki is < 1.26 nM at PCSK9 [1], 0.012 nM on PCSK9 [2] (setting [4]) and 0.028 nM on PCSK9 [3] (setting [5]).
`COc1ccc(C[C@@H]2NC(=O)[C@H]([C@@H](C)O)NC(=O)[C@@H]3[C@@H]4CCN3C(=O)[C@@H]3Cc5cn(c6ccc(F)cc56)CCCCCCN(Cc5ccc(cc5)CCNC(=O)[C@]5(C)CCCN5C2=O)C(=O)CCC(=O)N[C@@H](CNC(=O)COCCOCC[N+](C)(C)CCNC(=O)COCCOCCNC(=O)COCCOCCNC(=O)CC[C@H](NC(=O)CCCCCCCCOCCCCCCCCC(=O)O)C(=O)O)C(=O)N[C@H](C)C(=O)N[C@@H](Cc2cccc(c2)CNC(=O)CO4)C(=O)N3)cc1` [Ex-62]: the Ki was < 1.26 nM at PCSK9 [1], < 0.006 nM at PCSK9 [2] and 0.038 nM on PCSK9 [3].
For the compound `COc1ccc(C[C@@H]2NC(=O)[C@H]([C@@H](C)O)NC(=O)[C@@H]3[C@@H]4CCN3C(=O)[C@@H]3Cc5cn(c6ccc(F)cc56)CCCCCCN(Cc5ccc(cc5)CCNC(=O)[C@]5(C)CCCN5C2=O)C(=O)CCC(=O)N[C@@H](C)C(=O)N[C@H](CNC(=O)CCOCCOCC[N+](C)(C)CCNC(=O)Cc2c(C)n(C(=O)c5ccc(Cl)cc5)c5ccc(OC)cc25)C(=O)N[C@@H](Cc2cccc(c2)CNC(=O)CO4)C(=O)N3)cc1` [Ex-52], the Ki was < 1.26 nM on PCSK9 [1], < 0.006 nM on PCSK9 [2] (setting [4]) and 0.001 nM on PCSK9 [3] (setting [5]).
Turning to `COc1ccc(C[C@@H]2NC(=O)[C@H]([C@@H](C)O)NC(=O)[C@@H]3[C@@H]4CCN3C(=O)[C@@H]3Cc5cn(c6ccc(F)cc56)CCCCCCN(Cc5ccc(cc5)CCNC(=O)[C@]5(C)CCCN5C2=O)C(=O)CCC(=O)N[C@@H](CNC(=O)COCCOCCNC(=O)COCCOCCNC(=O)CC[C@H](NC(=O)CCCCCCCCCCCCCCCCC(=O)O)C(=O)O)C(=O)N[C@H](CNC(=O)CCOCCOCC[N+](C)(C)C)C(=O)N[C@@H](Cc2cccc(c2)CNC(=O)CO4)C(=O)N3)cc1` [Ex-63], the figures for the Ki at PCSK9 [1], on PCSK9 [2] (setting [4]) and on PCSK9 [3] (setting [5]) were < 1.26 nM, < 0.006 nM and 0.045 nM, respectively.
On to `COc1ccc(C[C@@H]2NC(=O)[C@H]([C@@H](C)O)NC(=O)[C@@H]3[C@@H]4CCN3C(=O)[C@@H]3Cc5cn(c6ccc(F)cc56)CCCCCCN(Cc5ccc(cc5)CCNC(=O)[C@]5(C)CCCN5C2=O)C(=O)CCC(=O)N[C@@H](C)C(=O)N[C@H](CNC(=O)[C@@H](CCCC[N+](C)(C)C)NC(=O)COCCOCCNC(=O)COCCOCCNC(=O)CC[C@H](NC(=O)CC[C@H](NC(=O)CCCCCCCCCCCCCCCCC(=O)O)C(=O)O)C(=O)O)C(=O)N[C@@H](Cc2cccc(c2)CNC(=O)CO4)C(=O)N3)cc1` [Ex-55], for which the values for the Ki at PCSK9 [1], at PCSK9 [2] (setting [4]) and on PCSK9 [3] (setting [5]) were < 1.26 nM, 0.012 nM and 0.01 nM, respectively.
As to `CCCCCC/C=C\CCCCCCCC(=O)N[C@@H](CCC(=O)NCCOCCOCC(=O)NCCOCCOCC(=O)NCC[N+](C)(C)CCCCCC(=O)NC[C@H]1NC(=O)[C@H](C)NC(=O)CCC(=O)N2CCCCCCn3cc(c4cc(F)ccc43)C[C@@H]3NC(=O)[C@H](Cc4cccc(c4)CNC(=O)CO[C@H]4CCN(C3=O)[C@@H]4C(=O)N[C@@H]([C@@H](C)O)C(=O)N[C@@H](Cc3ccc(OC)cc3)C(=O)N3CCC[C@@]3(C)C(=O)NCCc3ccc(cc3)C2)NC1=O)C(=O)O` [Ex-21], the Ki at PCSK9 [1] is < 1.26 nM; on PCSK9 [2] (setting [4]), 0.01 nM; on PCSK9 [3] (setting [5]), 0.001 nM.
As to `COc1ccc(C[C@@H]2NC(=O)[C@H]([C@@H](C)O)NC(=O)[C@@H]3[C@@H]4CCN3C(=O)[C@@H]3Cc5cn(c6ccc(F)cc56)CCCCCCN(Cc5ccc(cc5)CCNC(=O)[C@]5(C)CCCN5C2=O)C(=O)CCC(=O)N[C@@H](C)C(=O)N[C@H](CNC(=O)COCCOCCNC(=O)COCCOCCNC(=O)CC[C@H](NC(=O)CC[C@H](NC(=O)CCOCCOCC[N+](C)(C)CCNC(=O)CCCCCCCCCCCCCCC(=O)O)C(=O)O)C(=O)O)C(=O)N[C@@H](Cc2cccc(c2)CNC(=O)CO4)C(=O)N3)cc1` [compound 37], the Ki on PCSK9 [1] was < 1.26 nM; on PCSK9 [2] (setting [4]), < 0.006 nM; at PCSK9 [3] (setting [5]), 0.006 nM.
